Four molecules from ChEMBL document CHEMBL1255267, “Reduced Susceptibility of Proteus mirabilis to triclosan” (2008) can be followed below.

What all share (format): functional
Assay [1] has as its system Proteus mirabilis. Put plainly: Antibacterial activity against Proteus mirabilis M 29 mutant after 18 hrs by Etest method. The following applies: M 29, 18 h.
In assay [2] the test system is Proteus mirabilis. Briefly: Antibacterial activity against Proteus mirabilis M 44 mutant after 18 hrs by Etest method. The following applies: M 44, 18 h.
The subject of assay [3] is Proteus mirabilis. Briefly: Antibacterial activity against Proteus mirabilis M 55 mutant after 18 hrs by Etest method. The following applies: M 55, 18 h.
The subject of assay [4] is Proteus mirabilis. Briefly: Antibacterial activity against Proteus mirabilis NP55 after 18 hrs by Etest method. As to conditions: NP55, 18 h.
For assay [5], the system named is Proteus mirabilis. Briefly: Antibacterial activity against Proteus mirabilis M 23 mutant after 18 hrs by Etest method. As to conditions: M 23, 18 h.
Assay [6] relates to Proteus mirabilis. Briefly: Antibacterial activity against Proteus mirabilis M 12 mutant after 18 hrs by Etest method. As to conditions: M 12, 18 h.
For assay [7], the system named is Proteus mirabilis. Briefly: Antibacterial activity against Proteus mirabilis M 26 mutant after 18 hrs by Etest method. As to conditions: M 26, 18 h.
The subject of assay [8] is Proteus mirabilis. Briefly: Antibacterial activity against Proteus mirabilis M 31 mutant after 18 hrs by Etest method. As to conditions: M 31, 18 h.
In assay [9] the test system is Proteus mirabilis. Put plainly: Antibacterial activity against Proteus mirabilis NP43 after 18 hrs by Etest method. The following applies: NP43, 18 h.
The subject of assay [10] is Proteus mirabilis. Put plainly: Antibacterial activity against Proteus mirabilis M 17 mutant after 18 hrs by Etest method. As to conditions: M 17, 18 h.
For a further assay, the system named is Escherichia coli. Put plainly: Antibacterial activity against Escherichia coli 10418 after 18 hrs by Etest method. The following applies: Escherichia coli, 10418, 18 h.
Assay [11] concerns Proteus mirabilis. Put plainly: Antibacterial activity against Proteus mirabilis B2 after 18 hrs by Etest method. As to conditions: B2, 18 h.
Assay [12] concerns Proteus mirabilis. Briefly: Antibacterial activity against Proteus mirabilis NP14 after 18 hrs by Etest method. As to conditions: NP14, 18 h.
Assay [13] relates to Proteus mirabilis. Put plainly: Antibacterial activity against Proteus mirabilis NP37 after 18 hrs by Etest method. As to conditions: NP37, 18 h.
Assay [14] relates to Proteus mirabilis. Put plainly: Antibacterial activity against Proteus mirabilis M 42 mutant after 18 hrs by Etest method. As to conditions: M 42, 18 h.
The test system of assay [15] is Proteus mirabilis. Put plainly: Antibacterial activity against Proteus mirabilis M 48 mutant after 18 hrs by Etest method. The following applies: M 48, 18 h.
In assay [16] the test system is Proteus mirabilis. Put plainly: Antibacterial activity against Proteus mirabilis M 40 mutant after 18 hrs by Etest method. As to conditions: M 40, 18 h.
In assay [17] the test system is Proteus mirabilis. Briefly: Antibacterial activity against Proteus mirabilis M 21 mutant after 18 hrs by Etest method. As to conditions: M 21, 18 h.
Assay [18] relates to Proteus mirabilis. Briefly: Antibacterial activity against Proteus mirabilis M 19 mutant after 18 hrs by Etest method. The following applies: M 19, 18 h.
Assay [19] deals with Proteus mirabilis. Put plainly: Antibacterial activity against Proteus mirabilis M 35 mutant after 18 hrs by Etest method. As to conditions: M 35, 18 h.

≈ marks a conversion by molar mass, not a printed value. Bounds are passed on as bounds.

For the molecule `CC1(C)S[C@@H]2[C@H](NC(=O)[C@H](N)c3ccccc3)C(=O)N2[C@H]1C(=O)O` [AMPICILLIN], the minimum inhibitory concentration (MIC) – broadly, the lowest concentration found to suppress growth – against Proteus mirabilis [1] is > 256 µg/mL; in the assay on Proteus mirabilis [2] it was > 256 µg/mL; in the assay with Proteus mirabilis [3] it was > 256 µg/mL; with Proteus mirabilis [4], > 256 µg/mL; against Proteus mirabilis [5], 12 µg/mL (≈ 34.3 µM); in the assay with Proteus mirabilis [6] it was 0.13 µg/mL (≈ 0.372 µM). Moreover, the MIC in the assay on Proteus mirabilis [7] was > 256 µg/mL; against Proteus mirabilis [8], > 256 µg/mL; in the assay on Proteus mirabilis [9] it was 0.4 µg/mL (≈ 1.14 µM); against Proteus mirabilis [10], 0.19 µg/mL (≈ 0.544 µM); against Escherichia coli it was 0.5 µg/mL (≈ 1.43 µM); with Proteus mirabilis [11], > 256 µg/mL. Moreover, the MIC was 16 µg/mL (≈ 45.8 µM) against Proteus mirabilis [12]; > 256 µg/mL in the assay with Proteus mirabilis [13]; > 256 µg/mL in the assay with Proteus mirabilis [14]; > 256 µg/mL in the assay on Proteus mirabilis [15]; > 256 µg/mL against Proteus mirabilis [16]; 16 µg/mL (≈ 45.8 µM) in the assay with Proteus mirabilis [17]. Besides, the figures for the MIC in the assay on Proteus mirabilis [18] and in the assay with Proteus mirabilis [19] were 12 µg/mL (≈ 34.3 µM) and > 256 µg/mL, respectively.
In the case of `CC1=C(C(=O)O)N2C(=O)[C@@H](NC(=O)[C@H](N)c3ccccc3)[C@H]2SC1` [CEPHALEXIN ANHYDROUS], the MIC in the assay on Proteus mirabilis [1] was 2 µg/mL (≈ 5.76 µM); against Proteus mirabilis [2] it was 4 µg/mL (≈ 11.5 µM); against Proteus mirabilis [3], 4 µg/mL (≈ 11.5 µM); in the assay on Proteus mirabilis [4], 4 µg/mL (≈ 11.5 µM); with Proteus mirabilis [5], 3 µg/mL (≈ 8.64 µM); against Proteus mirabilis [6] it was 1.5 µg/mL (≈ 4.32 µM). The minimal inhibitory concentration (MIC) against Proteus mirabilis [7] was determined as 3 µg/mL (≈ 8.64 µM); in the assay with Proteus mirabilis [8] it was 3 µg/mL (≈ 8.64 µM); against Proteus mirabilis [9], 4 µg/mL (≈ 11.5 µM); against Proteus mirabilis [10], 1 µg/mL (≈ 2.88 µM); with Escherichia coli it was 2 µg/mL (≈ 5.76 µM); against Proteus mirabilis [11] it was 6 µg/mL (≈ 17.3 µM). For the same molecule, the MIC is 3 µg/mL (≈ 8.64 µM) with Proteus mirabilis [12]; 4 µg/mL (≈ 11.5 µM) with Proteus mirabilis [13]; 4 µg/mL (≈ 11.5 µM) in the assay on Proteus mirabilis [14]; 3 µg/mL (≈ 8.64 µM) against Proteus mirabilis [15]; 3 µg/mL (≈ 8.64 µM) in the assay with Proteus mirabilis [16]; 3 µg/mL (≈ 8.64 µM) in the assay with Proteus mirabilis [17]. The figures for the MIC against Proteus mirabilis [18] and against Proteus mirabilis [19] were 4 µg/mL (≈ 11.5 µM) and 3 µg/mL (≈ 8.64 µM), respectively.
Regarding `O=C(O)c1cn(C2CC2)c2cc(N3CCNCC3)c(F)cc2c1=O` [CIPROFLOXACIN], the MIC against Proteus mirabilis [1] came out at 0.008 µg/mL (≈ 0.0241 µM); against Proteus mirabilis [2] it was 0.03 µg/mL (≈ 0.0905 µM); with Proteus mirabilis [3] it was 0.02 µg/mL (≈ 0.0604 µM); with Proteus mirabilis [4], 0.016 µg/mL (≈ 0.0483 µM); against Proteus mirabilis [5] it was 0.05 µg/mL (≈ 0.151 µM); in the assay on Proteus mirabilis [6] it was 0.006 µg/mL (≈ 0.0181 µM). In addition, the MIC was found to be 0.012 µg/mL (≈ 0.0362 µM) in the assay with Proteus mirabilis [7]; 0.008 µg/mL (≈ 0.0241 µM) against Proteus mirabilis [8]; 0.01 µg/mL (≈ 0.0302 µM) in the assay on Proteus mirabilis [9]; 0.006 µg/mL (≈ 0.0181 µM) in the assay with Proteus mirabilis [10]; 0.02 µg/mL (≈ 0.0604 µM) with Proteus mirabilis [11]; 0.06 µg/mL (≈ 0.181 µM) with Proteus mirabilis [12]. The MIC with Proteus mirabilis [13] amounted to 0.02 µg/mL (≈ 0.0604 µM); in the assay on Proteus mirabilis [14], 0.016 µg/mL (≈ 0.0483 µM); with Proteus mirabilis [15] it was 0.02 µg/mL (≈ 0.0604 µM); in the assay with Proteus mirabilis [16], 0.012 µg/mL (≈ 0.0362 µM); against Proteus mirabilis [17], 0.05 µg/mL (≈ 0.151 µM); against Proteus mirabilis [18], 0.05 µg/mL (≈ 0.151 µM). This molecule gave an MIC against Proteus mirabilis [19] of 0.016 µg/mL (≈ 0.0483 µM).
Consider `CCn1cc(C(=O)O)c(=O)c2ccc(C)nc21` [NALIDIXIC ACID], for which the MIC against Proteus mirabilis [1] was 2 µg/mL (≈ 8.61 µM); against Proteus mirabilis [2], 1.5 µg/mL (≈ 6.46 µM); with Proteus mirabilis [3] it was 1.5 µg/mL (≈ 6.46 µM); in the assay with Proteus mirabilis [4], 3 µg/mL (≈ 12.9 µM); against Proteus mirabilis [5], 2 µg/mL (≈ 8.61 µM); against Proteus mirabilis [6] it was 1.5 µg/mL (≈ 6.46 µM). Moreover, the MIC is 1.5 µg/mL (≈ 6.46 µM) in the assay with Proteus mirabilis [7]; 1.5 µg/mL (≈ 6.46 µM) with Proteus mirabilis [8]; 2 µg/mL (≈ 8.61 µM) against Proteus mirabilis [9]; 2 µg/mL (≈ 8.61 µM) against Proteus mirabilis [10]; 0.38 µg/mL (≈ 1.64 µM) against Escherichia coli; 2 µg/mL (≈ 8.61 µM) in the assay with Proteus mirabilis [11]. For the same molecule, the MIC in the assay on Proteus mirabilis [12] worked out at 3 µg/mL (≈ 12.9 µM); with Proteus mirabilis [13] it was 4 µg/mL (≈ 17.2 µM); against Proteus mirabilis [14], 2 µg/mL (≈ 8.61 µM); in the assay on Proteus mirabilis [15], 1.5 µg/mL (≈ 6.46 µM); in the assay on Proteus mirabilis [16], 1.5 µg/mL (≈ 6.46 µM); in the assay with Proteus mirabilis [17] it was 3 µg/mL (≈ 12.9 µM). Also, the MIC in the assay on Proteus mirabilis [18] and in the assay with Proteus mirabilis [19] was 2 µg/mL (≈ 8.61 µM) in each case.
